In PubChem BioAssay AID248 (DTP/NCI, 2004):
Several values for one entry are separate records, joined by “and”; a condition that tells them apart may be missing. Equal values may be shown once. Inconclusive results and toxic doses are left out. Rule as the data show it: active = T/C of 150% or more; inactive = T/C below 125%.

Tested on: L1210 leukemia ip in BDF1 mice, survival T/C
Assay: NCI In Vivo Anticancer Drug Screen. Data for tumor model L1210 Leukemia (intraperitoneal) in B6D2F1 (BDF1) mice
Conditions: endpoint: mean survival time, higher = longer survival
Outline: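 Ratio derived from survival: compound-dosed mice over vehicle-dosed mice, all bearing a transplantable tumor.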

Measured: T/C

CCCCCCCCOc1ccc(C(=O)O)cc1
inactive: dose: 100.0 mg/kg/injection, schedule: Q01DX009 (ip), vehicle: saline with Tween-80 96 % of control | dose: 200.0 mg/kg/injection, schedule: Q01DX009 (ip), vehicle: saline with Tween-80 96 % of control | dose: 400.0 mg/kg/injection, schedule: Q01DX009 (ip), vehicle: saline with Tween-80 92 % of control

NC(=O)c1cc([N+](=O)[O-])ccc1N
inactive: dose: 100.0 mg/kg/injection, schedule: Q01DX001 (ip), vehicle: other 103 % of control | dose: 100.0 mg/kg/injection, schedule: Q04DX003 (ip), vehicle: saline sonified 103 % of control | dose: 200.0 mg/kg/injection, schedule: Q01DX001 (ip), vehicle: other 112 % of control | dose: 200.0 mg/kg/injection, schedule: Q04DX003 (ip), vehicle: saline sonified 105 % of control | dose: 400.0 mg/kg/injection, schedule: Q01DX001 (ip), vehicle: other 95 % of control | dose: 400.0 mg/kg/injection, schedule: Q04DX003 (ip), vehicle: saline sonified 111 % of control

NCCCOC12CC3CC(CC(C3)C1)C2
inactive: dose: 10.0 mg/kg/injection, schedule: Q04DX002 (ip), vehicle: saline 106 % of control | dose: 20.0 mg/kg/injection, schedule: Q04DX002 (ip), vehicle: saline 117 % of control | dose: 40.0 mg/kg/injection, schedule: Q04DX002 (ip), vehicle: saline 102 % of control

CC1=C(Cl)C(=O)C(Cl)=C(Cl)C1=O
inactive: dose: 75.0 mg/kg/injection, schedule: Q01DX001 (ip), vehicle: saline 103 % of control

O=C1NC2C3CC(c4ccccc43)C12 (configuration not stated)
inactive: dose: 100.0 mg/kg/injection, schedule: Q04DX002 (ip), vehicle: Klucel (hydroxypropylcellulose) (HPC) 101 % of control | dose: 200.0 mg/kg/injection, schedule: Q04DX002 (ip), vehicle: Klucel (hydroxypropylcellulose) (HPC) 108 % of control | dose: 400.0 mg/kg/injection, schedule: Q04DX002 (ip), vehicle: Klucel (hydroxypropylcellulose) (HPC) 111 % of control

CC12CCC3(CC1CC/C(=C\c1ccco1)C2=O)OCCO3 (configuration not stated)
inactive: dose: 100.0 mg/kg/injection, schedule: Q01DX001 (ip), vehicle: saline 101 % of control | dose: 100.0 mg/kg/injection, schedule: Q04DX003 (ip), vehicle: saline 108 % of control | dose: 200.0 mg/kg/injection, schedule: Q01DX001 (ip), vehicle: saline 92 % of control | dose: 200.0 mg/kg/injection, schedule: Q04DX003 (ip), vehicle: saline 95 % of control | dose: 400.0 mg/kg/injection, schedule: Q01DX001 (ip), vehicle: saline 97 % of control | dose: 400.0 mg/kg/injection, schedule: Q04DX003 (ip), vehicle: saline 98 % of control

NC(CSS(=O)(=O)O)=NCCC1=NCCN1
inactive: dose: 25.0 mg/kg/injection, schedule: Q04DX002 (ip), vehicle: saline 101 % of control | dose: 50.0 mg/kg/injection, schedule: Q04DX002 (ip), vehicle: saline 101 % of control | dose: 100.0 mg/kg/injection, schedule: Q04DX002 (ip), vehicle: saline 101 % of control | dose: 200.0 mg/kg/injection, schedule: Q04DX002 (ip), vehicle: saline 96 % of control and 107 % of control | dose: 400.0 mg/kg/injection, schedule: Q04DX002 (ip), vehicle: saline 115 % of control

OCC(I)C(CO)[n+]1ccccc1 (configuration not stated)
inactive: dose: 12.5 mg/kg/injection, schedule: Q01DX009 (ip), vehicle: saline 104 % of control | dose: 12.5 mg/kg/injection, schedule: Q04DX003 (ip), vehicle: saline 102 % of control | dose: 25.0 mg/kg/injection, schedule: Q01DX009 (ip), vehicle: saline 110 % of control | dose: 25.0 mg/kg/injection, schedule: Q04DX003 (ip), vehicle: saline 100 % of control | dose: 50.0 mg/kg/injection, schedule: Q01DX009 (ip), vehicle: saline 101 % of control | dose: 50.0 mg/kg/injection, schedule: Q04DX003 (ip), vehicle: saline 102 % of control

CNC(=S)N/N=C/c1ccc([N+](=O)[O-])s1
inactive: dose: 100.0 mg/kg/injection, schedule: Q04DX003 (ip), vehicle: saline with Tween-80 90 % of control | dose: 200.0 mg/kg/injection, schedule: Q04DX003 (ip), vehicle: saline with Tween-80 90 % of control | dose: 400.0 mg/kg/injection, schedule: Q04DX003 (ip), vehicle: saline with Tween-80 89 % of control

C#CC1(O)CC[C@H]2[C@@H]3CCC4=CCCC[C@@H]4[C@H]3CC[C@@]21C (some centres not stated)
inactive: dose: 100.0 mg/kg/injection, schedule: Q01DX001 (ip), vehicle: carboxymethylcellulose (CMC) 103 % of control | dose: 200.0 mg/kg/injection, schedule: Q01DX001 (ip), vehicle: carboxymethylcellulose (CMC) 96 % of control | dose: 400.0 mg/kg/injection, schedule: Q01DX001 (ip), vehicle: carboxymethylcellulose (CMC) 91 % of control

CCOC(=O)C(Oc1ccc([N+](=O)[O-])cc1)C(=O)OCC
inactive: dose: 100.0 mg/kg/injection, schedule: Q01DX009 (ip), vehicle: Klucel (hydroxypropylcellulose) (HPC) 98 % of control | dose: 200.0 mg/kg/injection, schedule: Q01DX009 (ip), vehicle: Klucel (hydroxypropylcellulose) (HPC) 98 % of control | dose: 400.0 mg/kg/injection, schedule: Q01DX009 (ip), vehicle: Klucel (hydroxypropylcellulose) (HPC) 96 % of control
